According to patent US10787444B2, “Compounds for the modulation of myc activity” (Syros Pharmaceuticals, Inc., priority 2015, dated 2020):
Where a name gives a salt, the structure may show the parent alone. Read-outs that look alike come from different tables or passages of the source.

How the values were obtained:
c-Myc/Max/Ebox DNA = biological target: T1, c-Myc/Max/Ebox DNA (Homo sapiens, UniProt P01106); assay: c-Myc/Max/Ebox DNA AlphaScreen Assay; format: binding; conditions: calculated IC50 class
T1 construct: his6 (cleaved yes)
T1 sequence (P01106 whole entry): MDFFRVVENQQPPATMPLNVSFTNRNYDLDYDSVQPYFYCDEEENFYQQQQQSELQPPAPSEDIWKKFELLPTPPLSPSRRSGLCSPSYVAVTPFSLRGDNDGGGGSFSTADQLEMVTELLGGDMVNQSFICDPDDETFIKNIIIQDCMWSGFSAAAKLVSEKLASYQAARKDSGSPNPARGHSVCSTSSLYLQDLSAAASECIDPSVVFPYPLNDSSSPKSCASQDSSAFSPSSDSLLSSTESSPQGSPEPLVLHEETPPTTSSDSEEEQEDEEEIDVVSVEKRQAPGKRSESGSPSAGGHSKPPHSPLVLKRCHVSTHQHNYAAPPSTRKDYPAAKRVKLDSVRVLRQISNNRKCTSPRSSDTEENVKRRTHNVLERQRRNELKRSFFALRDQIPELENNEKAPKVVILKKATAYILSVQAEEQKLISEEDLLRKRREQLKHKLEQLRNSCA
Procedure: Compounds of the invention were assayed for c-Myc/Max/EBox activity as described in the following protocol. Human his6-c-Myc and his6-Max were used with biotinylated DNA containing a single Ebox sequence (biotin[…]) purchased from MWG Operon. Free c-Myc was generated from his6-c-Myc through thrombin cleavage of the his6 tag. For 384-well plate assays, 10 μL of a 2× solution of free c-Myc (20 nM final), Ni^2+ coated Acceptor Beads (25 μg/ml final), and biotinylated Ebox oligo (10 nM final) were added to 384-well plates with a Biotek EL406 liquid handler. 50 nL of compounds from stock plates were added by pin transfer using a Janus Workstation (PerkinElmer), allowing the compounds to interact with c-Myc prior to c-Myc binding with Max. In the current assay, DMSO was not allowed to exceed 2% v/v of the assay. 10 μl of 2× master mix containing streptavidin-coated donor beads (25 μg/ml final) and his6-Max (5 nM) were added. AlphaScreen measurements were performed on an Envision plate reader (PerkinElmer) utilizing the manufacturer's protocol.
Both master mixes were made in room temperature assay buffer (50 mM HEPES, 150 mM NaCl, 0.2% w/v BSA, 0.02% w/v Tween20, 40 μg/ml glycogen, 500 μM DTT, pH 8.0, wherein both DTT and glycogen were added fresh). Alpha beads were added to respective master solutions. All subsequent steps were performed in low light conditions. Solution 1:2× solution of components with final concentrations of c-Myc Ni-coated Acceptor Beads (25 μg/ml), and biotinylated Ebox oligo (10 nM). Solution 2:2× solution of streptavidin-coated donor beads (25 μg/ml final) and his6-Max 10 μL. […] 50 nL of compounds from stock plates were added by pin transfer using a Janus Workstation. Solution 2 (10 μl) was added with the liquid handler. Plates were sealed with foil to block light exposure and prevent evaporation. Plates were very briefly centrifuged followed by 2 hour incubation. […] Excitation was at 680 nm for donor bead release of singlet oxygen and emission was read with a bandpass filter from 520-620 nm.

[1] = test system: human small lung cancer cell line H2171; assay: Cell Viability Assay (ATPlite); format: cell-based; conditions: read-out: H2171 Activity
Procedure: Compounds of the invention were assayed for cell viability using the human small lung cancer cell line H2171 as described in the following protocol. Cells were counted and adjusted to 20,000 cells/mL. Using a Biotek EL406, 50 μL of cells in media were distributed into 384 well white plates from Thermo. Immediately after plating, compound in DMSO was distributed to plates. Compounds were added to plates using a 50 nL 384 well pin transfer manifold on a Janus workstation. Stocks were arrayed in 10 point dose response in DMSO stock in 384 well Greiner compound plates. After the addition of compounds, plates were incubated for three days in a 37° C. incubator. Cell viability was read out using ATPlite from Perkin Elmer. Lyophilized powder was resuspended in lysis buffer and diluted 1:2 with deionized water. 25 μL of this solution was added to each well using the Biotek liquid handler. Plates were incubated for 15 minutes at room temperature before signal was read on an Envision Plate Reader. The data from this assay are summarized in Tables 2 and 3 below (H2171 activity).

[2] = Homo sapiens, NCI-H2171, 72 h, Table 2, compounds of FIG. 1, H2171 cells, three days, ATPlite, calculated IC50 class
[3] = Homo sapiens, NCI-H2171, 72 h, Table 3, compounds of FIG. 2, H2171 cells, three days, ATPlite, calculated IC50 class
[4] = Table 2, compounds of FIG. 1, H2171 cells, three days, ATPlite, calculated IC50 class

Compound | IC50 (c-Myc/Max/Ebox DNA; Table 2, compounds of FIG. 1) [nM] | IC50 [1, 2] [nM] | other results
COCCNCCC(=O)Nc1sc2c(c1-c1nc3ccc(-c4cccc(C(=O)NCCN(C)C)c4)cc3s1)CCNC2 [compound 493] | < 300 | < 300 | 
COCCNCCC(=O)Nc1sc2c(c1-c1nc3cc(-c4cncc(F)c4)ccc3s1)CCNC2 [compound 337] | < 300 | < 300 | 
CN(C)CCC(=O)Nc1sc2c(c1-c1nc3ccccc3s1)CCNC2 [Compound 130, N-(3-(benzo[d]thiazol-2-yl)-4,5,6,7-tetrahydrothieno[2,3-c]pyridin-2-yl)-3-(dimethylamino)propanamide] | < 300 | < 300 | 
CCC(C)NCCC(=O)Nc1sc2c(c1-c1nc3cc(F)ccc3s1)CCN(C(C)C)C2 (centres unmarked) [Compound 126, 3-(sec-butylamino)-N-(3-(5-fluorobenzo[d]thiazol-2-yl)-6-isopropyl-4,5,6,7-tetrahydrothieno[2,3-c]pyridin-2-yl)propanamide] | < 300 | < 300 | 
CCC(C)NCCC(=O)Nc1sc2c(c1-c1nc3cc(Br)ccc3s1)CCN(C(C)C)C2 (centres unmarked) [Compound 141, N-(3-(5-bromobenzo[d]thiazol-2-yl)-6-isopropyl-4,5,6,7-tetrahydrothieno[2,3-c]pyridin-2-yl)-3-(sec-butylamino)propanamide] |  | 300 to 1000 | 
CC(C)NCCC(=O)Nc1sc2c(c1-c1nc3cc(-n4cnc(Cl)c4)ccc3s1)CCNC2 [compound 173] | < 300 | < 300 | 
CC(=O)Nc1sc2c(c1-c1nc3ccccc3s1)CCC(N)C2 (centres unmarked) [Compound 221, N-(6-amino-3-(benzo[d]thiazol-2-yl)-4,5,6,7-tetrahydrobenzo[b]thiophen-2-yl)acetamide] |  |  | IC50 (c-Myc/Max/Ebox DNA; Table 3, compounds of FIG. 2): > 10000 nM; IC50 [1, 3]: > 10000 nM
CC(=O)Nc1sc2c(c1-c1nc3ccccc3s1)CCN(C(C)C)C2 [Compound 200, N-(3-(benzo[d]thiazol-2-yl)-6-isopropyl-4,5,6,7-tetrahydrothieno[2,3-c]pyridin-2-yl)acetamide] |  |  | IC50 (c-Myc/Max/Ebox DNA; Table 3, compounds of FIG. 2): 300 to 1000 nM; IC50 ([1]; Homo sapiens, NCI-H2171, 72 h): 1000 to 10000 nM
CC(C)CNCCC(=O)Nc1sc2c(c1-c1nc3ccccc3s1)CCN(C(C)C)C2 [Compound 552, N-(3-(Benzo[d]thiazol-2-yl)-6-isopropyl-4,5,6,7-tetrahydrothieno[2,3-c]pyridin-2-yl)-3-(isobutylamino)propanamide] | < 300 | < 300 | 
CC(=O)Nc1sc2c(c1-c1nc3ccccc3s1)C(C)CNC2 (centres unmarked) [Compound 205, N-(3-(benzo[d]thiazol-2-yl)-4-methyl-4,5,6,7-tetrahydrothieno[2,3-c]pyridin-2-yl)acetamide] |  |  | IC50 (c-Myc/Max/Ebox DNA; Table 3, compounds of FIG. 2): > 10000 nM; IC50 [1, 3]: > 10000 nM
CC(=O)Nc1sc2c(c1-c1nc3ccccc3s1)CCC(NC1CCOCC1)C2 (centres unmarked) [Compound 231, N-(3-(benzo[d]thiazol-2-yl)-6-((tetrahydro-2H-pyran-4-yl)amino)-4,5,6,7-tetrahydrobenzo[b]thiophen-2-yl)acetamide] |  |  | IC50 (c-Myc/Max/Ebox DNA; Table 3, compounds of FIG. 2): 1000 to 10000 nM; IC50 [1, 3]: < 300 nM
CC[C@H](C)NCCC(=O)Nc1sc2c(c1-c1nc3cc(-c4ccncc4)ccc3s1)C[C@@H](C)NC2 [Compound 589, 3-(((S)-sec-butyl)amino)-N—((R)-5-methyl-3-(5(pyridin-4-yl)benzo[d]thiazol-2-yl)-4,5,6,7-tetrahydrothieno[2,3-c]pyridin-2-yl)propanamide] | < 300 | < 300 | 
COCCNCCC(=O)Nc1sc2c(c1-c1nc3ccc(-c4cnoc4)cc3s1)CCNC2 [compound 469] | < 300 | < 300 | 
COCCNCCC(=O)Nc1sc2c(c1-c1nc3cc(-c4cnn(C)c4)ccc3s1)CCNC2 [compound 184] | < 300 | < 300 | 
CC(C)NCCC(=O)Nc1sc2c(c1-c1nc3cc(-c4ccc(S(C)(=O)=O)cc4)ccc3s1)CCNC2 [compound 181] | < 300 | < 300 | 
COCCNCCC(=O)Nc1sc2c(c1-c1nc3cc(-c4cnn(C)c4)ccc3s1)CC(C)NC2C (single isomer, unassigned) [Compound 564, N-(5,7-Dimethyl-3-(5-(1-methyl-1H-pyrazol-4-yl)benzo[d]thiazol-2-yl)-4,5,6,7-tetrahydrothieno[2,3-c]pyridin-2-yl)-3-((2-methoxyethyl)amino)propanamide] | < 300 | < 300 | 
CC(C)NCCC(=O)Nc1sc2c(c1-c1nc3ccccc3s1)CCNC2 [Compound 129, N-(3-(benzo[d]thiazol-2-yl)-4,5,6,7-tetrahydrothieno[2,3-c]pyridin-2-yl)-3-(isopropylamino)propanamide] | < 300 | < 300 | 
CC(C)N1CCc2c(sc(NC(=O)CCN3C(=O)C=CC3=O)c2-c2nc3ccccc3s2)C1 [Compound 133, N-(3-(benzo[d]thiazol-2-yl)-6-isopropyl-4,5,6,7-tetrahydrothieno[2,3-c]pyridin-2-yl)-3-(2,5-dioxo-2,5-dihydro-1H-pyrrol-1-yl)propanamide] | > 10000 | 1000 to 10000 | 
COCCNCCC(=O)Nc1sc2c(c1-c1nc3cc(-c4cncc(N)c4)ccc3s1)CCNC2 [compound 443] | < 300 | < 300 | 
CC(C)NCCC(=O)Nc1sc2c(c1-c1nc3cc(C(=O)N(C)C)ccc3s1)CCNC2 [Compound 322, 2-(2-(3-(Isopropylamino)propanamido)-4,5,6,7-tetrahydrothieno[2,3-c]pyridin-3-yl)-N,N-dimethylbenzo[d]thiazole-5-carboxamide] | 300 to 1000 | < 300 | 
CCC(C)NCCC(=O)Nc1sc2c(c1-c1nc3ccccc3s1)CCNC2 (centres unmarked) [Compound 607, N-(3-(benzo[d]thiazol-2-yl)-4,5,6,7-tetrahydrothieno[2,3-c]pyridin-2-yl)-3-(sec-butylamino)propanamide] |  |  | IC50 [1, 4]: < 300 nM
CCC(C)NCCC(=O)Nc1sc2c(c1-c1nc3cc(C(F)(F)F)ccc3s1)CCN(C(C)C)C2 (centres unmarked) [Compound 146, 3-(sec-butylamino)-N-(6-isopropyl-3-(5-(trifluoromethyl)benzo[d]thiazol-2-yl)-4,5,6,7-tetrahydrothieno[2,3-c]pyridin-2-yl)propanamide] |  |  | IC50 [1, 4]: < 300 nM
CCC(C)NCCC(=O)Nc1sc2c(c1-c1nc3cc(Br)ccc3s1)CCN(C(C)C)C2 (centres unmarked) [Compound 145, N-(3-(5-Bromobenzo[d]thiazol-2-yl)-6-isopropyl-4,5,6,7-tetrahydrothieno[2,3-c]pyridin-2-yl)-3-(sec-butylamino)propanamide] |  |  | IC50 [1, 4]: 300 to 1000 nM
CC(C)N1CCc2c(sc(NC(=O)CCNC3CCCC3)c2-c2nc3ccccc3s2)C1 [Compound 542, N-(3-(Benzo[d]thiazol-2-yl)-6-isopropyl-4,5,6,7-tetrahydrothieno[2,3-c]pyridin-2-yl)-3-(cyclopentylamino)propanamide] |  | < 300 | IC50 ([1]; Table 2, compounds of FIG. 1, H2171 cells, three days, ATPlite, calculated IC50 class, listed as 111): 1000 to 10000 nM
CCOC(=O)CNCCC(=O)Nc1sc2c(c1-c1nc3ccccc3s1)CCNC2 [Compound 148, Ethyl (3-((3-(benzo[d]thiazol-2-yl)-4,5,6,7-tetrahydrothieno[2,3-c]pyridin-2-yl)amino)-3-oxopropyl)glycinate hydrochloride] |  | > 10000 | 
Cn1cc(CNCCC(=O)Nc2sc3c(c2-c2nc4ccccc4s2)CCNC3)cn1 [Compound 143, N-(3-(benzo[d]thiazol-2-yl)-4,5,6,7-tetrahydrothieno[2,3-c]pyridin-2-yl)-3-(((1-methyl-1H-pyrazol-4-yl)methyl)amino)propanamide] |  | < 300 | 
CCC(C)NCCC(=O)Nc1sc2c(c1-c1nc3cc(I)ccc3s1)CCN(C(C)C)C2 (centres unmarked) [Compound 162, 3-(sec-butylamino)-N-(3-(5-iodobenzo[d]thiazol-2-yl)-6-isopropyl-4,5,6,7-tetrahydrothieno[2,3-c]pyridin-2-yl)propanamide dihydrochloride] |  | 1000 to 10000 | 
